Test results as given in ChEMBL document CHEMBL1201862, “PubChem BioAssay data set” (2004).
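How tested: cells in 96-well plates exposed to compound for 48 hours at five concentrations. GI50 marks 50% less growth.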 Calls of active or inactive are those of the source. No stated cut-off is given here; in the data, active = GI50 up to about 1.1 µM and inactive = higher.

How the values were obtained:
Assay in all cases: growth of human tumour cells (NCI), 48 h
HOP-62 = system: HOP-62
K562 = system: K562
NCI-H23 = system: NCI-H23
UO-31 = system: UO-31
A498 = system: A498
KM12 = system: KM12
MDA-MB-435 = system: MDA-MB-435
MOLT-4 = system: MOLT-4
NCI-H522 = system: NCI-H522
CAKI-1 = system: CAKI-1
OVCAR-4 = system: OVCAR-4
OVCAR-3 = system: OVCAR-3
SNB-75 = system: SNB-75
SF-295 = system: SF-295
SK-MEL-2 = system: SK-MEL-2
UACC-62 = system: UACC-62
A549 = system: A549
HL-60 = system: HL-60
EKVX = system: EKVX
786-0 = system: 786-0
T47D = system: T47D
HT-29 = system: HT-29
HCT-15 = system: HCT-15
U-251 = system: U-251
Hs-578T = system: Hs-578T
MDA-MB-231 = system: MDA-MB-231
RPMI-8226 = system: RPMI-8226
HCC 2998 = system: HCC 2998
M14 = system: M14
SN12C = system: SN12C
COLO 205 = system: COLO 205
UACC-257 = system: UACC-257
OVCAR-5 = system: OVCAR-5
IGROV-1 = system: IGROV-1
SF-539 = system: SF-539
BT-549 = system: BT-549
SW-620 = system: SW-620
LOX IMVI = system: LOX IMVI
NCI/ADR-RES = system: NCI/ADR-RES
MCF7 = system: MCF7
TK-10 = system: TK-10
SK-MEL-28 = system: SK-MEL-28
HOP-92 = system: HOP-92
DU-145 = system: DU-145
NCI-H460 = system: NCI-H460
SK-OV-3 = system: SK-OV-3
SK-MEL-5 = system: SK-MEL-5
OVCAR-8 = system: OVCAR-8
RXF 393 = system: RXF 393
SR = system: SR
SF-268 = system: SF-268
ACHN = system: ACHN
NCI-H226 = system: NCI-H226
PC-3 = system: PC-3
HCT-116 = system: HCT-116
SNB-19 = system: SNB-19
CCRF-CEM = system: CCRF-CEM
Malme-3M = system: Malme-3M
MDA-N = system: MDA-N

Measured: GI50

CC(Oc1ccc(Cl)cc1Cl)C(=O)NN1C(=O)CSC1c1ccc(Cl)cc1 (stereo not drawn)
> 100 µM: HCT-15
inactive: HOP-62 33.6 µM | K562 44.1 µM | NCI-H23 79.8 µM | UO-31 > 100 µM | A498 25.2 µM | KM12 86.3 µM | MDA-MB-435 > 100 µM | MOLT-4 21.7 µM | NCI-H522 93.1 µM | CAKI-1 18.9 µM | OVCAR-4 35.3 µM | OVCAR-3 54.5 µM | SNB-75 27.9 µM | SF-295 50.6 µM | SK-MEL-2 56.1 µM | UACC-62 43.5 µM | A549 31 µM | HL-60 35.3 µM | EKVX 80 µM | 786-0 53.6 µM | T47D 42.5 µM | HT-29 70.1 µM | U-251 40.3 µM | Hs-578T 64.7 µM | MDA-MB-231 27.4 µM | RPMI-8226 35.7 µM | HCC 2998 54.8 µM | M14 47.1 µM | SN12C 20 µM | COLO 205 > 100 µM | UACC-257 48.2 µM | OVCAR-5 > 100 µM | IGROV-1 36.1 µM | SF-539 20.5 µM | BT-549 43.7 µM | SW-620 > 100 µM | LOX IMVI 56 µM | NCI/ADR-RES > 100 µM | MCF7 36.8 µM | TK-10 80.5 µM | SK-MEL-28 67.3 µM | HOP-92 21 µM | DU-145 63.5 µM | NCI-H460 > 100 µM | SK-OV-3 54.3 µM | SK-MEL-5 49.7 µM | OVCAR-8 46.9 µM | RXF 393 27 µM | SR 19.5 µM | SF-268 88.7 µM | ACHN 42.5 µM | NCI-H226 17.6 µM | PC-3 38.5 µM | HCT-116 57.9 µM | SNB-19 30.4 µM

COC(=O)c1c2n(c3ccccc13)C[C@H]1OC(C)(C)O[C@@H]21
> 100 µM: HCT-15
inactive: HOP-62 > 100 µM | K562 > 100 µM | NCI-H23 > 100 µM | UO-31 > 100 µM | CCRF-CEM > 100 µM | A498 > 100 µM | KM12 > 43.8 µM | MDA-MB-435 > 100 µM | MOLT-4 > 100 µM | NCI-H522 > 100 µM | CAKI-1 > 65.6 µM | OVCAR-4 > 100 µM | OVCAR-3 > 100 µM | SNB-75 > 100 µM | SF-295 > 100 µM | SK-MEL-2 > 100 µM | UACC-62 > 100 µM | A549 > 100 µM | EKVX > 100 µM | 786-0 > 100 µM | T47D > 100 µM | HT-29 > 100 µM | U-251 > 100 µM | Hs-578T > 100 µM | MDA-MB-231 > 100 µM | RPMI-8226 > 100 µM | HCC 2998 > 100 µM | M14 > 100 µM | SN12C > 100 µM | COLO 205 > 100 µM | UACC-257 > 100 µM | OVCAR-5 > 100 µM | IGROV-1 > 100 µM | SF-539 > 100 µM | BT-549 > 100 µM | SW-620 > 100 µM | LOX IMVI > 100 µM | NCI/ADR-RES > 100 µM | MCF7 > 100 µM | TK-10 > 100 µM | SK-MEL-28 > 100 µM | HOP-92 > 100 µM | DU-145 > 100 µM | NCI-H460 > 100 µM | SK-OV-3 > 100 µM | SK-MEL-5 > 100 µM | OVCAR-8 > 100 µM | RXF 393 > 100 µM | SR > 100 µM | SF-268 > 100 µM | ACHN > 100 µM | NCI-H226 > 100 µM | PC-3 > 100 µM | HCT-116 > 100 µM | Malme-3M > 47 µM | SNB-19 > 100 µM

O=C(NC/C(Cl)=C/Cl)Nc1cccc2c1CCCC2
inactive: HOP-62 > 100 µM | NCI-H23 > 100 µM | UO-31 > 100 µM | A498 65.8 µM | KM12 > 100 µM | MDA-MB-435 > 100 µM | MOLT-4 29.5 µM | NCI-H522 > 100 µM | CAKI-1 86.9 µM | OVCAR-4 > 100 µM | OVCAR-3 > 100 µM | SNB-75 > 100 µM | SF-295 > 100 µM | SK-MEL-2 > 100 µM | UACC-62 > 100 µM | A549 > 100 µM | EKVX 82.8 µM | 786-0 89.3 µM | T47D 97.9 µM | HT-29 38.5 µM | U-251 > 100 µM | Hs-578T > 100 µM | MDA-MB-231 > 100 µM | RPMI-8226 49.8 µM | HCC 2998 > 100 µM | M14 > 100 µM | SN12C > 100 µM | COLO 205 > 100 µM | UACC-257 58.9 µM | OVCAR-5 > 100 µM | IGROV-1 > 100 µM | SF-539 > 100 µM | SW-620 > 100 µM | LOX IMVI > 100 µM | NCI/ADR-RES > 100 µM | MCF7 > 100 µM | TK-10 46.7 µM | SK-MEL-28 > 100 µM | HOP-92 55.7 µM | DU-145 > 100 µM | NCI-H460 83.8 µM | SK-OV-3 > 100 µM | MDA-N > 100 µM | SK-MEL-5 > 100 µM | OVCAR-8 > 100 µM | RXF 393 > 100 µM | SR 35.9 µM | SF-268 > 100 µM | ACHN > 100 µM | NCI-H226 > 100 µM | PC-3 74.5 µM | HCT-116 > 100 µM | Malme-3M > 100 µM | SNB-19 > 100 µM
> 100 µM: HCT-15

Brc1ccc2[nH]cc([C@H]3CN[C@@H](c4c[nH]c5ccc(Br)cc45)CN3)c2c1
2.04 µM: HCT-15
inactive: HOP-62 3.37 µM | K562 1.99 µM | NCI-H23 1.6 µM | UO-31 1.91 µM | CCRF-CEM 2.22 µM | A498 2 µM | KM12 1.76 µM | MDA-MB-435 1.77 µM | MOLT-4 2.11 µM | NCI-H522 1.79 µM | CAKI-1 1.82 µM | OVCAR-4 1.94 µM | OVCAR-3 1.79 µM | SNB-75 1.83 µM | SF-295 4.97 µM | SK-MEL-2 2.09 µM | UACC-62 5.04 µM | A549 2.52 µM | HL-60 1.77 µM | EKVX 2.61 µM | 786-0 2.29 µM | T47D 2.66 µM | HT-29 1.97 µM | U-251 2.12 µM | Hs-578T 4.31 µM | MDA-MB-231 1.62 µM | RPMI-8226 2.16 µM | HCC 2998 1.69 µM | M14 1.81 µM | SN12C 2.91 µM | COLO 205 1.73 µM | UACC-257 3.64 µM | OVCAR-5 2.75 µM | IGROV-1 1.87 µM | SF-539 2 µM | BT-549 > 41.1 µM | SW-620 2.51 µM | LOX IMVI 1.44 µM | NCI/ADR-RES 1.93 µM | MCF7 1.58 µM | TK-10 2.26 µM | SK-MEL-28 8.05 µM | HOP-92 1.87 µM | DU-145 2.23 µM | NCI-H460 2.36 µM | SK-OV-3 2.49 µM | SK-MEL-5 2.56 µM | OVCAR-8 1.79 µM | RXF 393 2.65 µM | SR 1.92 µM | SF-268 2.65 µM | ACHN 1.93 µM | NCI-H226 2.45 µM | PC-3 1.88 µM | HCT-116 2.02 µM | Malme-3M 2.2 µM | SNB-19 2.83 µM

CCC1C(c2ccccc2O)c2cc3c(cc2OC1N1CCOCC1)OCO3 (stereo not drawn)
9.4 µM: HCT-15
inactive: HOP-62 15.4 µM | K562 11.5 µM | NCI-H23 18.2 µM | UO-31 13.9 µM | CCRF-CEM 13.9 µM | A498 14.3 µM | KM12 13 µM | MDA-MB-435 15.6 µM | MOLT-4 6.44 µM | NCI-H522 12.9 µM | CAKI-1 16.6 µM | OVCAR-3 12.5 µM | SNB-75 8.53 µM | SF-295 14.9 µM | SK-MEL-2 15.5 µM | UACC-62 13.1 µM | A549 14.4 µM | HL-60 18.2 µM | EKVX 12.8 µM | 786-0 21.1 µM | T47D 13.2 µM | HT-29 13.6 µM | U-251 13.6 µM | Hs-578T 15.9 µM | MDA-MB-231 16.8 µM | RPMI-8226 13.9 µM | HCC 2998 17.3 µM | M14 15.1 µM | SN12C 15.7 µM | COLO 205 15.4 µM | UACC-257 16 µM | OVCAR-5 14.9 µM | IGROV-1 15.8 µM | SF-539 16.3 µM | BT-549 15.6 µM | SW-620 15.9 µM | LOX IMVI 14.9 µM | MCF7 14.4 µM | TK-10 13.9 µM | SK-MEL-28 17.6 µM | HOP-92 13 µM | DU-145 14.8 µM | NCI-H460 14.3 µM | SK-OV-3 22.2 µM | MDA-N 12.8 µM | SK-MEL-5 16.7 µM | OVCAR-8 20.8 µM | RXF 393 13.3 µM | SR 14.5 µM | SF-268 14.7 µM | ACHN 13.3 µM | NCI-H226 15.7 µM | PC-3 12.5 µM | HCT-116 13.6 µM | Malme-3M 13 µM | SNB-19 15.3 µM
